Experimental findings from ChEMBL document CHEMBL1201862, “PubChem BioAssay data set” (2004) are described below.

Structures are written as SMILES.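 Protocol summary: plate cells (96-well), add compound at 5 concentrations, incubate 48 h, interpolate endpoints linearly. Abbreviation: GI50, concentration required for 50% inhibition of growth.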 The source made the active and inactive calls. Rule as the data show it: active = GI50 up to about 1.1 µM and inactive = higher.

Holding throughout (assay): inhibition of tumour cell growth, NCI panel, 48 h
For experiment [1], the system named is CCRF-CEM.
Experiment [2] has as its system RXF 393.
Experiment [3] concerns IGROV-1.
Experiment [4] relates to CAKI-1.
In experiment [5] the test system is NCI-H226.
The test system of experiment [6] is TK-10.
Experiment [7] deals with SK-MEL-28.
Experiment [8] deals with SW-620.
Experiment [9] relates to BT-549.
Experiment [10] relates to A498.
The subject of experiment [11] is DU-145.
Experiment [12] deals with M14.
The test system of experiment [13] is NCI/ADR-RES.
The test system of experiment [14] is MCF7.
Experiment [15] relates to NCI-H522.
In experiment [16] the test system is T47D.
In experiment [17] the test system is U-251.
Experiment [18] concerns SNB-19.
Experiment [19] deals with SNB-78.
In experiment [20] the test system is HOP-18.

With `Nc1nc(SCC(=O)O)nc(O)c1N`, the GI50 in experiment [1] is 1.32 µM (inactive); in [2], > 100 µM (inactive); in experiment [3], > 100 µM (inactive); in experiment [4], > 100 µM (inactive); in experiment [5] it was > 100 µM (inactive); in experiment [6] it was > 100 µM (inactive). The GI50 in [7] was > 100 µM (inactive); in experiment [8] it was 31 µM (inactive); in [9] it was > 100 µM (inactive); in [10] it was > 100 µM (inactive); in experiment [11], > 100 µM (inactive); in experiment [12], > 100 µM (inactive). The GI50 in experiment [13], in [14], in experiment [15], in experiment [16], in experiment [17] and in experiment [18] was > 100 µM (inactive) each time.
For `O=c1c2cc(Br)ccc2nc(CCl)n1-c1ccc(O)c([N+](=O)[O-])c1`, the GI50 is 22.4 µM (inactive) in experiment [1]; 12.9 µM (inactive) in experiment [2]; 24 µM (inactive) in experiment [3]; 21.7 µM (inactive) in experiment [4]; 14.5 µM (inactive) in experiment [5]; 18.7 µM (inactive) in [6]. For the same compound, the GI50 in experiment [7] was 17.6 µM (inactive); in experiment [8], 19.2 µM (inactive); in [19], 22.9 µM (inactive); in [10], 20.1 µM (inactive); in experiment [12] it was 22.3 µM (inactive); in experiment [15], 18.8 µM (inactive). Further, the GI50 in experiment [17] is 38.9 µM (inactive).
With `Cc1cccc2c1Oc1cc(Cl)ccc1C2NC(=O)CN(C)C` (centres undefined), the GI50 was 49.1 µM (inactive) in [1]; 26.5 µM (inactive) in experiment [2]; 35.2 µM (inactive) in [3]; 99.8 µM (inactive) in [5]; > 100 µM (inactive) in experiment [6]; 27.1 µM (inactive) in experiment [7]. The GI50 in experiment [8] was 66.4 µM (inactive); in experiment [19], 50.7 µM (inactive); in experiment [12] it was 24 µM (inactive); in experiment [18] it was 54 µM (inactive).
`COc1ccc(NC(=O)C2C(=O)N(c3ccc(OC)cc3)C(=O)/C2=N\N)cc1` (centres undefined): the GI50 in experiment [1], in experiment [2], in experiment [3], in experiment [20], in experiment [6] and in experiment [7] was > 100 µM (inactive) in each case. For the same compound, the GI50 in experiment [8], in experiment [19], in experiment [10], in [12], in experiment [15] and in experiment [17] was > 100 µM (inactive) throughout. The GI50 in [18] is 94.8 µM (inactive).
Consider `Cc1nc(=O)n2c(c1C(=O)Nc1ccc(Cl)cc1)NCCC2`, for which the GI50 in [1], in [2], in experiment [3], in [4], in experiment [5] and in [6] was > 100 µM (inactive) throughout. Moreover, the GI50 is > 100 µM (inactive) in experiment [7]; > 100 µM (inactive) in [8]; > 100 µM (inactive) in [19]; > 100 µM (inactive) in experiment [12]; 2.97 µM (inactive) in experiment [15]; > 100 µM (inactive) in experiment [17]. Also, the GI50 in experiment [18] was 32 µM (inactive).
Regarding `c1ccc2c(c1)N=C(c1ccc3ccccc3c1)CC(c1cccc3ccccc13)S2` (centres undefined), the GI50 was 12.6 µM (inactive) in [1]; 40.4 µM (inactive) in [2]; 14 µM (inactive) in [3]; > 100 µM (inactive) in [20]; 55.8 µM (inactive) in experiment [4]; 45.4 µM (inactive) in [5]. Moreover, the GI50 was 75.7 µM (inactive) in [6]; 83.4 µM (inactive) in experiment [7]; 32.8 µM (inactive) in experiment [8]; 27.5 µM (inactive) in [10]; 54.8 µM (inactive) in experiment [12]; 24.3 µM (inactive) in [15]. Also, the GI50 in [17] is 60.1 µM (inactive); in [18], 46.8 µM (inactive).
As for `CC(C)CCC[C@@H](C)[C@H]1CC[C@H]2[C@@H]3CC=C4CC(OCCCCN(O)CCCSC5OC(CO)C(O)C(O)C5O)CC[C@]4(C)[C@H]3CC[C@]12C` (some centres undefined), the GI50 in experiment [1] is 26.4 µM (inactive); in [2] it was 79.3 µM (inactive); in [3] it was 22.1 µM (inactive); in [4] it was > 100 µM (inactive); in experiment [6] it was > 100 µM (inactive); in experiment [7], > 100 µM (inactive). Besides, the GI50 in [8] is 22.6 µM (inactive); in [19] it was 74.8 µM (inactive); in experiment [10], > 100 µM (inactive); in experiment [12], 25 µM (inactive); in experiment [15], 23.1 µM (inactive); in [17], 30.2 µM (inactive). Also, the GI50 in experiment [18] is > 100 µM (inactive).
In the case of `CC(C)N(C(=O)C12C3C4C5(C#N)C3C1(C#N)C5C42C#N)C(C)C` (centres undefined), the GI50 in [1], in experiment [3], in [20], in [5], in experiment [6] and in experiment [7] was > 100 µM (inactive) throughout. In addition, the GI50 in experiment [8], in experiment [19], in [10], in experiment [15], in experiment [17] and in experiment [18] was > 100 µM (inactive) each time.
Turning to `COc1ccc(OC)c(NCC#N)c1`, the GI50 in experiment [1], in experiment [2], in experiment [3], in experiment [20], in [5] and in [6] was > 100 µM (inactive) each time. For the same compound, the GI50 in experiment [7], in experiment [8], in experiment [10], in experiment [12], in [15] and in experiment [17] was > 100 µM (inactive) throughout. Besides, in [18], the GI50 was > 100 µM (inactive).
Consider `O=C(CSc1nc(-c2ccccc2)c(-c2ccccc2)[nH]1)N/N=C/c1ccc([N+](=O)[O-])cc1`, for which the GI50 was 21.4 µM (inactive) in experiment [1]; 17.6 µM (inactive) in experiment [3]; 13.6 µM (inactive) in experiment [5]; 15.7 µM (inactive) in experiment [6]; 15.6 µM (inactive) in experiment [7]; 21.2 µM (inactive) in experiment [19]. Moreover, the GI50 in experiment [10] is 14 µM (inactive); in experiment [12] it was 17.4 µM (inactive); in [15] it was 14.5 µM (inactive); in [17] it was 14.1 µM (inactive).
Regarding `CCN1CCC(O)(/C=C/c2ccc(Cl)cc2)C(C(=O)/C=C/c2ccc(Cl)cc2)C1` (centres undefined), the GI50 in experiment [1] was 22.7 µM (inactive); in [3], 27.1 µM (inactive); in experiment [5], 20.8 µM (inactive); in experiment [6], 31.1 µM (inactive); in experiment [7], 21.6 µM (inactive); in experiment [8] it was 21.2 µM (inactive). In addition, the GI50 in experiment [19] is 45.5 µM (inactive); in experiment [10] it was 17.3 µM (inactive); in experiment [12] it was 34.6 µM (inactive); in experiment [15], 28.4 µM (inactive); in [17], 19 µM (inactive); in experiment [18], 71.6 µM (inactive).
For the compound `C=CCC1[C@@H](C(C)(C)C(C(C)=O)C(=O)C(=O)OC)OC(C(C)(C)C)N1C(=O)OC` (some centres undefined), the GI50 in [1] is 49 µM (inactive); in experiment [2] it was > 100 µM (inactive); in [20], > 100 µM (inactive); in experiment [5] it was 52.6 µM (inactive); in experiment [6], > 100 µM (inactive); in [7], > 100 µM (inactive). The GI50 in experiment [19], in [10], in experiment [12], in experiment [15], in experiment [17] and in experiment [18] was > 100 µM (inactive) throughout.
For `COc1cc2c(c(OC)c1OC)-c1ccc(SC)c(=O)cc1[C@@H](NC(=O)c1ccc(C#N)cc1)CC2`, the GI50 in [1] was < 0.01 µM (active); in [2], < 0.01 µM (active); in experiment [3], < 0.01 µM (active); in experiment [5], < 0.01 µM (active); in [6], 3.3 µM (inactive); in experiment [7], > 79.8 µM (inactive). In addition, the GI50 in [8], in experiment [19], in experiment [10], in [12], in experiment [15] and in [17] was < 0.01 µM (active) in each case. In addition, the GI50 in experiment [18] was < 0.01 µM (active).
For the compound `CO[C@@H]1C[C@H](OC(N)=O)[C@@H]2C=C[C@@H]3/C=C(C)/C=C/[C@@H](C)[C@H](/C(C)=C/[C@@H](C)NC(C)=O)OC(=O)/C=C/C=C(C)\C=C\[C@]3(C)[C@@H]2C1` [SUPERSTOLIDE B], the GI50 in experiment [1] was 0.107 µM (active); in experiment [2], < 0.005 µM (active); in experiment [3], < 0.005 µM (active); in experiment [4], < 0.005 µM (active); in experiment [5], < 0.005 µM (active); in [6], 0.0718 µM (active). In addition, the GI50 in experiment [7] is < 0.005 µM (active); in experiment [8] it was < 0.005 µM (active); in [9] it was 0.224 µM (active); in experiment [10], < 0.005 µM (active); in experiment [11], < 0.005 µM (active); in [12], < 0.005 µM (active). Also, the GI50 in experiment [13] is < 0.005 µM (active); in experiment [14] it was 0.00693 µM (active); in experiment [15], < 0.005 µM (active); in [16], < 0.005 µM (active); in experiment [17], < 0.005 µM (active); in experiment [18] it was 0.0306 µM (active).
